Source: article PMC12062478, “Screening herbal and natural product libraries to aid discovery of novel allosteric modulators of human P2X7” (Purinergic Signalling, 2024)
Values joined by “and” are separate entries in the source; they are usually repeats but may differ in a detail not shown here. Equal values may be shown once.

What follows are molecules tested against T1, P2X7 (Homo sapiens, UniProt Q99572) (assay: ATP-induced YO-PRO-1 dye uptake in HEK-hP2X7 cells). Settings: 10 µM, 10 min pre-incubation, ATP 1 mM.
T1 construct: expressed in transfected cells
T1 sequence (Q99572 1-595): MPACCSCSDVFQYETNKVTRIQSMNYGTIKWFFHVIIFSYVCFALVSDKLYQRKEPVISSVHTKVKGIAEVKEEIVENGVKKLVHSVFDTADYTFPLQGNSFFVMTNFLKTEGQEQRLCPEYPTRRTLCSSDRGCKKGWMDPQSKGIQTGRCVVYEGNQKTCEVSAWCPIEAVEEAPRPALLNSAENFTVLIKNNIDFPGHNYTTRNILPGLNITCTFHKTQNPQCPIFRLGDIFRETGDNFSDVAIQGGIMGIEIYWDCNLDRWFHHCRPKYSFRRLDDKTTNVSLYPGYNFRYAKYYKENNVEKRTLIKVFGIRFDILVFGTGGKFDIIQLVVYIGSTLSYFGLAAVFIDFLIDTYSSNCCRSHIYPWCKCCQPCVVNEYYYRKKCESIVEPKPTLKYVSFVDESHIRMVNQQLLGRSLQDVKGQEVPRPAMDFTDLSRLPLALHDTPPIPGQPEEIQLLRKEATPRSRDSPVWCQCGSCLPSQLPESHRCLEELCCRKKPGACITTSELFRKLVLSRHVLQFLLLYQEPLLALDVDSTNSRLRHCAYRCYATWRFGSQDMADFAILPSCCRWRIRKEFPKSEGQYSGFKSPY
Format: cell-based
Experimental: HEK-hP2X7 or HEK-hP2X4 cells were plated at 2.5 × 10^4 cells per well (100 µL volume) the day before experiments into poly-D-lysine (Merck Millipore) coated 96-well plates (NUNC, Fisher Scientific #167-008). The membrane impermeant dye YO-PRO-1 iodide (Life Technologies, Fisher Scientific) was used at a final concentration of 2 µM in low divalent buffer (145 mM NaCl, 5 mM KCl, 0.2 mM CaCl2, 13 mM glucose, 10 mM HEPES, pH 7.3, osm 300–310). Media were removed from the plate, and 90 µL of YO-PRO-1 buffer was added per well. Plates were warmed to 37 °C for 5 min before recording. Data was acquired on a Flexstation 3 plate reader (Molecular Devices) using excitation wavelength 490 nm, emission wavelength 520 nm, and six reads per well (PMT medium). […] […] Pipette height was set to 80 µL and the rate of injection was 4.
YO-PRO-1 dye uptake assay data is plotted as a percentage of control where control responses are measured in the absence of plant extract. Cell viability data is plotted as a percentage of control or background-corrected fluorescence data. Concentration–response graphs were plotted using GraphPad Prism v6 with a non-linear regression fit (variable slope). IC50 values were generated from collated datasets from a minimum of three independent experiments. Statistical differences were determined by one-way ANOVA statistical tests performed using GraphPad Prism v6 with Dunnett’s multiple comparison post hoc test. Significance was taken as P ≤ 0.05.
We acquired a natural product library (Set IV) containing 419 compounds from NCI DTP and tested these on P2X7 responses using a YO-PRO-1 dye uptake in HEK293 cells stably expressing human P2X7 (HEK-hP2X7). […] This allowed us to assess for any immediate effect of the injected compound, and secondly, it allowed for any potential negative modulators to be pre-incubated with P2X7.
CC1(C)CCC[C@]2(C)C3=C(CC[C@@H]12)C(=O)OC3 [Confertifolin] was tested, and the “Effect on ATP-mediated YO-PRO-1 uptake” value was “able to reduce ATP-mediated YO-PRO-1 uptake”.

Same assay, conditions: > 30 µM, HEK-hP2X7
For O=c1c(-c2ccc(O)cc2)coc2cc(O)cc(O)c12 [Genistein], the “Effect on YO-PRO-1 uptake at high concentrations” value (“Effect on YO-PRO-1 uptake” for short) was “reduction of YO-PRO-1 uptake in hP2X7 cells at high concentrations”. In the case of COc1cc2ccc(=O)oc2cc1O [Scopoletin], the “Effect on YO-PRO-1 uptake” value is reported as “reduction of YO-PRO-1 uptake in hP2X7 cells at high concentrations”. In the case of CCCCCCCCCCCCCCCC(=O)O [Palmitic acid], the “Effect on YO-PRO-1 uptake” value is reported as “reduction of YO-PRO-1 uptake in hP2X7 cells at high concentrations”.

Same assay, conditions: ATP with vehicle (DMSO), no modulator
For Nc1ncnc2c1ncn2[C@@H]1O[C@H](COP(=O)(O)OP(=O)(O)OP(=O)(O)O)[C@@H](O)[C@H]1O [ATP, reference compound], the EC50 was 131 µM and 110 µM.

Same assay, conditions: HEK-hP2X7, 10 min pre-treatment, ATP 1 mM; read-out: IC50 value (95% CI)
O=c1c(O)c(-c2ccc(O)cc2)oc2cc(O)cc(O)c12 [Kampferol, kaempferol] was tested, and the IC50 was 40 µM. In the case of COc1cc2ccc(=O)oc2cc1O [Scopoletin], the IC50 is reported as 39.9 µM.

Same assay, conditions: HEK-hP2X7, NCI Natural Product Set IV compounds, Fig. 1F; read-out: IC50 (dose inhibition experiments)
For CC1(C)CCC[C@]2(C)C3=C(CC[C@@H]12)C(=O)OC3 [Confertifolin], the IC50 was 3.86 µM.

Same assay, conditions: IC50 value (95% CI)
With O=c1c(-c2ccc(O)cc2)coc2cc(O)cc(O)c12 [Genistein] the IC50 was 49.7 µM.

Same assay, conditions: compound 10 µM
In the case of CC1(C)CCC[C@]2(C)C3=C(CC[C@@H]12)C(=O)OC3 [Confertifolin], the “Mechanism of action from ATP concentration–response curve” value is reported as “potential non-competitive mechanism of action”.

Same assay, conditions: screen for PAM activity; compound 10 µM injected 60 s before ATP
With CC(=O)CCC(=O)O [Levullinic acid] the “P2X7 response (% of control)” value was 134.82 % of control. In the case of CCCCC[C@@H](O)[C@H]1C(=O)O[C@H](C)[C@@H](O)/C=C/C=C/C=C/C=C/C=C(\C)[C@@H](O)[C@H](O)[C@H](O)C[C@H](O)C[C@H](O)C[C@H](O)C[C@H](O)C[C@@H]1O [Lagosin], the “P2X7 response (% of control)” value is reported as 148.84 % of control. With CC(=O)CCCCn1c(=O)c2c(ncn2C)n(C)c1=O [Pentoxifylline, reference compound] the “P2X7 response (% of control)” value was 140.48 % of control. For COc1c(OC)c2c3c(nccc3c1OC)C(=O)c1cc(O)ccc1-2 [NSC785143], the “P2X7 response (% of control)” value was 149.00 % of control. With Nc1ncnc2c1ncn2C1OCC(O)C1O (stereo not drawn) [MLS003170979] the “P2X7 response (% of control)” value was 129.73 % of control. In the case of CC(=O)O[C@H]1C(=O)[C@@]2(C)[C@H]([C@H](OC(=O)c3ccccc3)[C@]3(O)C[C@H](O)C(C)=C1C3(C)C)[C@]1(OC(C)=O)CO[C@@H]1C[C@@H]2O [Baccatin III], the “P2X7 response (% of control)” value is reported as 136.25 % of control. With COc1cc2c3c(c1O)-c1cc(O)ccc1C[C@H]3N(C)CC2 [NSC785167] the “P2X7 response (% of control)” value was 125.18 % of control. For Predorine, the “P2X7 response (% of control)” value was 740.31 % of control. With COc1ccc2c(c1OC)-c1c(OC)c(OC)cc3c1[C@H](C2)NCC3 [NSC785187] the “P2X7 response (% of control)” value was 127.21 % of control. CC1=C(C)C(=O)O[C@@H]([C@](C)(O)[C@H]2CC[C@H]3[C@@H]4[C@@H]5O[C@@H]5[C@@]5(O)CC=CC(=O)[C@]5(C)[C@H]4CC[C@]23C)C1 [Withanolide A] was tested, and the “P2X7 response (% of control)” value was 149.93 % of control. In the case of Erythromycin cyclopentylproprionate, the “P2X7 response (% of control)” value is reported as 126.67 % of control. In the case of COc1cc(/C=C/C(=O)CC(=O)/C=C/c2ccc(O)c(OC)c2)ccc1O [Curcumin], the “P2X7 response (% of control)” value is reported as 144.58 % of control. For COc1cc([C@@H]2c3cc4c(cc3[C@H](O)[C@H]3COC(=O)[C@@H]23)OCO4)cc(OC)c1OC [Picropodophyllin], the “P2X7 response (% of control)” value was 145.86 % of control. With Hexopyranuronic acid the “P2X7 response (% of control)” value was 147.11 % of control. With COC1C(C)OC(OC2CC(C)(O)Cc3cc4c(c(O)c32)C(=O)c2c(O)cc3c(c2C4=O)OC2OC3(C)C(O)C(N(C)C)C2O)C(OC)C1(C)OC (stereo not drawn) [Nogamycin] the “P2X7 response (% of control)” value was 155.77 % of control. For COc1cc2c3c(c1O)Oc1ccc(cc1)C[C@@H]1c4c(cc(OC)c(OC)c4Oc4ccc(cc4)C[C@@H]3N(C)CC2)CCN1C [NSC785173], the “P2X7 response (% of control)” value was 148.84 % of control.

Same assay, conditions: screen for potential negative allosteric modulators; compound 10 µM injected 60 s before ATP
In the case of COc1ccc2c(c1OC)CN1CCc3cc4c(cc3[C@@H]1C2)OCO4 [Hydroberberine], the “P2X7 response (% of control)” value is reported as 9.75 % of control. In the case of CCCn1cc2c3c(cccc31)[C@H]1C[C@@H](C)CN(C)[C@@H]1C2.O=C(O)C(O)C(O)C(=O)O [NSC332294], the “P2X7 response (% of control)” value is reported as 29.09 % of control. For COc1cc2c(cc1O)C[C@H]1c3c(cc(OC)c(O)c3-2)CCN1C [NSC785158], the “P2X7 response (% of control)” value was 49.59 % of control. In the case of CC1(C)CCC[C@]2(C)C3=C(CC[C@@H]12)C(=O)OC3 [Confertifolin], the “P2X7 response (% of control)” value is reported as 9.72 % of control.
